This is an account of results in US12012394B2, “Alpha-synuclein ligands” (Washington University, priority 2018, dated 2024).

Test [1] relates to α-synuclein fibrils. The test is described as follows: Direct radioligand binding assay of [18F]28, α-synuclein fibrils. More on the design: species or system human. The following applies: comparison of Kd on fibrils and AD tissue. How it is done: (§1) The equilibrium dissociation constant (Kd) for a series of compounds was determined using direct radioactive competitive binding assays (homologous or heterologous) with either recombinant α-synuclein fibrils or brain tissue homogenates from AD cases.
(§2) Recombinant protein was produced in E. coli using protocols based on previously described methods for α-synuclein [Giasson, B. I., et al., “Mutant and wild type human alpha-synucleins assemble into elongated filaments with distinct morphologies in vitro,” 1999, J Biol. Chem., 274:7619-7622; Huang, C., et al., “A new method for purification of recombinant human alpha-synuclein in Escherichia coli,” 2005, Protein Expr Purif, 42:173-177; Yu, L., et al, “Synthesis and in vitro evaluation of á-synuclein ligands,” 2012, Bioorg. […]
(§3) Purified recombinant α-synuclein monomer (2 mg/ml) was incubated in 20 mM Tris-HCl, pH 8.0, 100 mM NaCl for 72 h at 37 C with shaking at 1000 rpm in an Eppendorf Thermomixer. […] The concentration of α-synuclein monomer in the supernatant was determined in a BCA protein assay according to the manufacturer's instructions, using a bovine serum albumin (BSA) standard curve. The measured decrease in α-synuclein monomer concentration was used to determine the concentration of fibrils in the 72 h fibril reaction mixture. […]

In test [2] the target is T1, α-synuclein fibrils (Homo sapiens (Human), UniProt P37840). Described as above. The following applies: α-synuclein fibrils. The procedure: as §1, §2, §3
Test [3] concerns the target T1, α-synuclein fibrils. Put plainly: Thioflavin T fluorescence competitive assay. The following applies: read-out: Thioflavin T assay Ki; competition with ThT on recombinant α-synuclein fibrils; at least three experiments.
Protocol: α-Synuclein recombinant protein was produced in E. coli. BL21(DE3)RIL E. coli were transformed with a pRK172 bacterial expression plasmid containing the human α-synuclein coding sequence. […] Overnight cultures were pelleted by centrifugation at 3,900×g for 10 min at 25° C. Bacterial pellets were resuspended in 20 mL osmotic shock buffer (30 mM Tris-HCl, 2 mM EDTA, 40% sucrose, pH 7.2) by gentle vortexing and incubated at room temperature for 10 minutes. The cell suspension was then centrifuged at 8,000×g for 10 min at 25° C. and the pellet was resuspended in 22.5 mL cold H2O before adding 9.4 μL 2 M MgCl2 to each tube. The suspension was incubated on ice for 3 min prior to centrifugation at 20,000×g for 15 min at 4° C. The supernatant was transferred to a fresh tube, streptomyocin was added to a final concentration of 10 mg/mL, and then centrifuged at 20,000×g for 15 min at 4° C. The supernatant from this step was collected and dithiothreitol (DTT) and Tris-HCl were added to final concentrations of 1 mM and 20 mM respectively, before boiling for 10 min to precipitate heat-sensitive proteins, which were pelleted at 20,000×g for 15 minutes at 4° C. The supernatant was collected and filtered through a 0.45 μm surfactant free cellulose acetate filter (Corning, Corning, NY) before loading onto a 1 mL DEAE Sepharose column equilibrated in 20 mM Tris-HCl pH 8, 1 mM EDTA, and 1 mM DTT. The DEAE column was washed with 20 mM Tris-HCl pH 8, 1 mM EDTA, 1 mM DTT before eluting α-synuclein protein in 20 mM Tris-HCl, pH 8, buffer with 1 mM EDTA, 1 mM DTT and 0.3 M NaCl. The purified α-synuclein protein was dialyzed overnight in 10 mM Tris-HCl, pH 7.6, 50 mM NaCl, and 1 mM DTT.
The purified, recombinant α-synuclein monomer (2 mg/mL) was incubated in Tris-HCl (20 mM) and NaCl (100 mM) while shaking at 1000 rpm in an Eppendorf Thermomixer in a 37° C. temperature-controlled room for 72 hours. To determine the concentration of fibrils, the reaction mixture (100 μL) was centrifuged at 18,000×g for 10 minutes to separate fibrils from monomer. The α-synuclein monomer and other soluble proteins in the supernatant were removed, and the fibril pellet was resuspended in 100 μL solution of Tris-HCl (20 mM) and NaCl (100 mM). This fibril suspension was used in a bicinchoninic acid (BCA) protein assay along with a bovine serum albumin (BSA) standard curve to determine the concentration of fibrils in the 72 hour fibril reaction mixture.
To prepare the fibrils for performing binding assays, the fibril reaction mixture prepared above was centrifuged at 18,000×g for 10 minutes. The supernatant was discarded and the fibril pellet was resuspended in Tris-HCl buffer (30 nM, pH=7.4) to achieve the desired concentration (3 or 6 μM) of fibrils for use in the assay.
The ThT solution (6 μM) in Tris-HCl buffer (30 nM, pH=7.4, 40 μL) was added to each of three cells in a 96 cell plate for fluorescence detection containing α-synuclein fibrils suspension (3.0 μM) in the Tris-HCl buffer (30 nM, pH=7.4, 40 μL). The mixture was incubated at room temperature for 1 hour on the shaking plate. The reaction plate was scanned by the excitation wavelength range from 430 to 465 nm. The maximum excitation wavelength (λex) was determined according to the fluorescent intensity-excitation wavelength curve.
Test [4] relates to Banner AD tissue. The test is described as follows: Homologous competition radioligand binding assay, AD tissue. More on the design: species or system human. The following applies: [18F]28. The procedure: as §1
Brain tissue samples were selected from an autopsy case series of patients evaluated for parkinsonism by movement disorders specialists at the Movement Disorders Center of Washington University School of Medicine in St. Louis. […] Dementia was determined by a movement disorders specialist based on clinical assessment of cognitive dysfunction sufficiently severe to impair activities of daily living, with further evaluation of cognitive impairment using the AD8 and Mini-Mental Status Exam (MMSE) [Galvin, J. E., et al., “The AD8: a brief informant interview to detect dementia,” 2005, Neurology 65:559-564; Folstein, M. F., et al., ““Mini-mental state”. […] LB stage was assessed at autopsy using a PD staging scale (range: 0, 1-6) [Braak, H., et al., “Stages in the development of Parkinson's disease-related pathology,” 2004, Cell Tissue Res., 318:121-134]. PD cases were selected based on a clinical diagnosis of PD plus dementia, Braak LB stage 5-6 pathology, and the absence of significant Aβ or tau pathology determined by immunohistochemistry. […]

The target in test [5] is Fibrils 4174 (Homo sapiens, UniProt P37840). The test is described as follows: 3H radioligand competition, Fibrils 4174. The format is binding. The following applies: hot concentration 2 nM. How it is done: (§4) A series of compounds were synthesized and the Ki (nM) in the presence of Fibrils 4174, PD-seeded fibrils (using Tg-1-90B as the radioligand), AD Tissue 6843 and/or AD Tissue 2846 was determined. In each experiment, the “hot” concentration was 2 nM.

The target in test [6] is T2, PD-seeded fibrils (Homo sapiens (Human), UniProt P37840). Put plainly: Radioligand competition, PD-seeded fibrils (Tg-1-90B as radioligand). The format is binding. The following applies: PD-seeded fibrils (Tg-1-90B radioligand); hot concentration 2 nM. The procedure: as §4
Test [7] addresses AD Tissue 2846. Put plainly: 3H radioligand competition, AD Tissue 2846. Format: binding. The following applies: hot concentration 2 nM. The procedure: as §4
Test [8] concerns the target AD Tissue 6843. Put plainly: 3H radioligand competition, AD Tissue 6843. Format: binding. The following applies: hot concentration 2 nM. How it is done: as §4
For test [9], the target named is PD fibrils (Homo sapiens (Human), UniProt P37840). Put plainly: Heterologous competition binding assay with [11C]Tg-1-90B as radioligand. The following applies: radioligand Tg-1-90-B. How it is done:
(§5) The equilibrium inhibitor constant (Ki) of a series of compounds was measured using heterologous radioactive binding assays with [^18F]TZ61-44, […], or [^125I]TZ61-84 as the screening radioligands. EC50 values for each compound were determined by fitting the data to the equation Y=Bottom+(Top−Bottom)/(1+(X−Log EC50)^−Hillcoefficient) using nonlinear regression by Kaleidagraph software, where Top and Bottom are the Y values for the top and bottom plateaus of the binding curve. The Ki values were derived from the EC50 values using the Cheng-Prusoff equation: Ki=EC50/(1+[radioligand]/Kd). FIGS. 5A-5E show the inhibition curves for TG-1-90B, TZ55-101, TZ61-84, TZ55-107, and TZ55-81 using [^18F]TZ61-44 as the radioligand. FIG. 11B-C show the inhibition curves for two separate experiments on PD fibrils for TZ55-101 using […] as the radioligand. FIGS. 12A-12F show the inhibition curves for TZ66-3, TZ64-015, TZ64-016, TZ64-018, TZ64-019, and TZ64-020 using [^18F]TZ61-44 as the radioligand. FIGS. 13A-13D show the inhibition curves for TZ66-9, TZ66-8, and TZ55-107 using [^18F]TZ61-44 as the radioligand.

Test [10] has as its target T2, PD-seeded fibrils. Put plainly: Heterologous competition binding assay with [18F]TZ61-44 as radioligand. The following applies: radioligand [18F]TZ61-44, 25 nM PD-seeded fibrils; for Ki: Cheng-Prusoff from EC50. The procedure: as §5
The test system of test [11] is AD Tissue 6843. Put plainly: Heterologous competition binding assay with [11C]Tg-1-90-B, AD tissue. The following applies: radioligand [11C]Tg-1-90-B. How it is done:
FIG. 11D is a plot of a heterologous competition binding assay of TZ55-101 in the presence of the radioligand [^11C]Tg-1-90-B and AD tissue 6843.
as §5
The binding to AD fibrils was also assessed for TZ55-101 in FIG. 11D.

The target in test [12] is Banner seeded fibrils (Homo sapiens (Human), UniProt P37840). Put plainly: Saturation binding of [125I]TZ61-84 to Banner seeded fibrils. The procedure: The binding efficacy (Kd) of TZ-61-84 was determined using a modified protocol. Specifically, saturation plots of radiolabeled [^125I]TZ61-84 were obtained measuring total and nonspecific binding of TZ61-84 to 100 nM Banner seeded fibrils. The results are depicted in FIG. 15B-15D and that TZ61-84 has a high binding affinity to α-synuclein (Kd<1 nM).

For test [13], the target named is T1, α-synuclein fibrils. The test is described as follows: Specific binding of TZ61-84: displacement of [18F]TZ-61-84 from fibrils. The following applies: [18F]TZ-61-84 at 0.0195 nM. The procedure:
(§6) TZ61-84 was screened for binding to Banner PD tissue, AD tissue, α-synuclein fibrils, Aβ fibrils and in controls by measuring how well it displaced [^18F]TZ-61-84 (at 0.0195 nM) from each substrate.

The test system of test [14] is Banner PD tissue. Put plainly: Specific binding of TZ61-84: displacement of [18F]TZ-61-84 from tissue. The following applies: [18F]TZ-61-84 at 0.0195 nM. How it is done:
as §6

Molecules are shown by their SMILES. Where “and” joins values, the source holds several entries; their conditions need not be identical. Equal values may be shown once.

In the case of `COc1cc(-c2nc(-c3ccc4cc(OCCF)ccc4n3)no2)ccn1` [Compound 28, 3-(6-(2-Fluoroethoxy)quinolin-2-yl)-5-(2-methoxypyridin-4-yl)-1,2,4-oxadiazole], the “selectivity for α-synuclein fibrils over AD tissues” value in test [1] is “lacks selectivity”. In addition, the dissociation constant Kd in test [2] turned out to be 18 nM. In [3], the Ki was found to be 17 nM. Further, in [4], the Bmax is on record as 1082 pmol/mg and the Kd was determined as 25 nM.
`COc1ccc2nc(-c3noc(-c4ccc5ncccc5c4)n3)ccc2c1` [TZ46-147]: the Ki was found to be 96 nM in test [5], 39 nM in [6], 30 nM in test [7] and 21 nM in test [8].
On to `COc1ccc2nc(-c3noc(-c4ccc(-n5cccn5)cc4)n3)ccc2c1` [TZ46-148], for which the Ki in [5] was 82 nM; in test [6] it was 17 nM; in test [7], 7 nM; in test [8] it was 13 nM.
In test [6], `COc1ccc2nc(-c3noc(-c4ccc(-n5ccnc5)cc4)n3)ccc2c1` [TZ46-155] displayed a Ki of 230 nM.
`COc1ccc(-c2ccc3cc(-c4cnc5ccccc5c4)ccc3n2)cn1` [TZ55-101]: the EC50 is 21 nM and 11 nM in [9]; 15 nM in test [10]. The Ki in test [9] (Cheng-Prusoff from EC50) is 20 nM and 10 nM; in [10], 14 nM. In test [11], the “affinity for AD fibrils” value is “did not show significant affinity”.
As to `COc1ccc(Nc2ccc3cc(OC/C=C/I)ccc3n2)cn1` [TZ61-84], the Kd in test [12] (100 nM Banner seeded fibrils, saturation binding) was 0.34 nM and 0.5 nM. Further, the Kd in test [12] (100 nM fibrils, saturation plot, unit inferred) was 0.338 nM and 0.496 nM. Moreover, the Bmax in test [12] (100 nM fibrils, saturation plot, unit not given, listed as [^125I]TZ61-84) is 259.7 and 310.5. For the same molecule, the “affinity for α-synuclein fibrils over Aβ fibrils” value in test [13] is recorded as “slightly more affinity”. In test [10], this molecule had an EC50 of 17 nM and a Ki of 16 nM. In addition, the “affinity for PD Banner tissue compared to AD Banner tissue” value in [14] was “high affinity”.
